The record followed here is patent US20180214410A1, “Development of Dietary Therapy in Cancer” (Osaka University, priority 2015, published 2018).

The test system of the data set is pulmonary adenocarcinoma. Nature of the data set: clinical course under other anticancer drugs in the lung cancer cases. The format is in vivo, human. The source says:
Each case is disclosed in detail below.

Regarding `COc1cc2ncnc(Nc3ccc(F)c(Cl)c3)c2cc1OCCCN1CCOCC1` [Iressa, gefitinib], the side effects result (case 2, oral dosing from September to May 2014, no ketogenic diet) is “not found”.
Take `C#Cc1cccc(Nc2ncnc3cc(OCCOC)c(OCCOC)cc23)c1` [erlotinib]: the “adverse event due to erlotinib” value (case 4, August 2014, on the head) is recorded as “eczema”. Besides, where the note is “one patient who left the ketogenic diet after the 3 month evaluation”, the “primary tumor (primary lesion) under erlotinib administration” value is recorded as “contraction”.
